# Where two headings read alike, the source gives them in different places.
# System: HIV-1
# Format: cell-based
# Conditions: for Geometric Mean Phenotype: fold change in IC50 vs wild type; for Average Phenotype (log): log fold resistance
# [1] = RT codon 41 ANY, 184 ANY, 215 ANY
# [2] = RT codon 41 WT, 184 V/I, 215 F/Y
# [3] = RT codon 41 WT, 184 V/I, 215 WT
# [4] = RT codon 41 WT, 184 WT, 215 F/Y
structure (smiles),measurement,setting,value
"Cc1cn([C@H]2C[C@H](N=[N+]=[N-])[C@@H](CO)O2)c(=O)[nH]c1=O [AZT, zidovudine]",effect of inclusion of the 184V mutation on magnitude of AZT resistance,"184V together with AZT resistance mutations, each cluster (FIG. 7)",substantial reduction
same,Geometric Mean Phenotype,[1],3.9 fold
same,Geometric Mean Phenotype,"RT codon 41 L, 184 WT, 215 F/Y",27.7 fold
same,Geometric Mean Phenotype,"RT codon 41 L, 184 WT, 215 WT",1.7 fold
same,Geometric Mean Phenotype,[2],6.2 fold
same,Geometric Mean Phenotype,[3],1.3 fold
same,Geometric Mean Phenotype,[4],13.4 fold
same,Geometric Mean Phenotype,"RT codon 41 WT, 184 WT, 215 WT",1.3 fold
same,"mean fold resistance, increase",genetic clusters with multiple mutations conferring AZT resistance (FIG. 7),~100 fold
same,Average Phenotype (log),[1],0.59
same,Average Phenotype (log),"RT codon 41 L, 184 WT, 215 F/Y",1.44
same,Average Phenotype (log),"RT codon 41 L, 184 WT, 215 WT",0.24
same,Average Phenotype (log),[2],0.79
same,Average Phenotype (log),[3],0.10
same,Average Phenotype (log),[4],1.13
same,Average Phenotype (log),"RT codon 41 WT, 184 WT, 215 WT",0.12
same,susceptibility profile of genetic cluster,virus harbouring the 184V mutation (FIG. 7),slightly reduced level of susceptibility

# Reference: patent US20040137436A1, “Method for measuring drug resistance” (priority 2000, published 2004)
